Tested on: Lactobacillus isolates
Experiment: Antibiotic disc susceptibility assay
Conditions: sensitive if zone of 1 mm or greater
Method: Antibiotic sensitivity profiles of the isolates were determined using the ‘disc susceptibility’ assay. Cultures were grown up in the appropriate broth medium for 24–48 h, spread-plated (100 μl) onto agar media and discs containing known concentrations of the antibiotics were placed onto the agar. Strains were examined for antibiotic sensitivity after 1–2 days incubation at 37° under anaerobic conditions. Strains were considered sensitive if zones of inhibition of 1 mm or greater were seen.

Row | Compound | Sensitivity of the lactobacilli to the antibiotic
1 | CN[C@H](CC(C)C)C(=O)N[C@H]1C(=O)N[C@@H](CC(N)=O)C(=O)N[C@H]2C(=O)N[C@H]3C(=O)N[C@H](C(=O)N[C@H](C(=O)O)c4cc(O)cc(O)c4-c4cc3ccc4O)[C@H](O)c3ccc(c(Cl)c3)Oc3cc2cc(c3O[C@@H]2O[C@H](CO)[C@@H](O)[C@H](O)[C@H]2O[C@H]2C[C@](C)(N)[C@H](O)[C@H](C)O2)Oc2ccc(cc2Cl)[C@H]1O [vancomycin] | resistant
2 | O=C(N[C@H](CO)[C@H](O)c1ccc([N+](=O)[O-])cc1)C(Cl)Cl [chloramphenicol] | sensitive
3 | CCn1cc(C(=O)O)c(=O)c2ccc(C)nc21 [nalidixic acid] | resistant
4 | CC1=C(C(=O)O)N2C(=O)[C@@H](NC(=O)[C@H](N)C3=CCC=CC3)[C@H]2SC1 [cephradine] | sensitive
5 | teicoplanin | Variable sensitivity
6 | CC1(C)S[C@@H]2[C@H](NC(=O)[C@H](N)c3ccc(O)cc3)C(=O)N2[C@H]1C(=O)O [amoxycillin] | sensitive
7 | CO/N=C(\C(=O)N[C@@H]1C(=O)N2C(C(=O)O)=C(COC(C)=O)CS[C@H]12)c1csc(N)n1 [ceftaxime] | sensitive
8 | CO/N=C(\C(=O)N[C@@H]1C(=O)N2C(C(=O)O)=CCS[C@H]12)c1csc(N)n1 [ceftizoxime] | Variable sensitivity
9 | NCC[C@H](O)C(=O)N[C@@H]1C[C@H](N)[C@@H](O[C@H]2O[C@H](CN)[C@@H](O)[C@H](O)[C@H]2O)[C@H](O)[C@H]1O[C@H]1O[C@H](CO)[C@@H](O)[C@H](N)[C@H]1O [amikacin] | resistant
10 | COc1cc(Cc2cnc(N)nc2N)cc(OC)c1OC [trimethoprim] | resistant
11 | O=C(O)c1cn(C2CC2)c2cc(N3CCNCC3)c(F)cc2c1=O [ciprofloxacin] | sensitive
12 | gentamicin | resistant
13 | CO/N=C(\C(=O)N[C@@H]1C(=O)N2C(C(=O)O)=C(CSc3nc(=O)c(=O)[nH]n3C)CS[C@H]12)c1csc(N)n1 [ceftriaxone] | sensitive
14 | CCN[C@@H]1C[C@H](N)[C@@H](O[C@H]2OC(CN)=CC[C@H]2N)[C@H](O)[C@H]1O[C@H]1OC[C@](C)(O)[C@H](NC)[C@H]1O [netilmicin] | resistant
15 | CC1(C)S[C@@H]2[C@H](NC(=O)[C@H](N)c3ccccc3)C(=O)N2[C@H]1C(=O)O [ampicillin] | sensitive

Reference: US7186545B2, “Probiotic strains from Lactobacillus salivarius and antimicrobial agents obtained therefrom” (Enterprise Ireland, priority 1997, dated 2007)
